Experimental data from US11084800B2 (Achillion Pharmaceuticals, Inc., priority 2017, dated 2021).

What follows are compounds tested against Human Factor D (Homo sapiens (Human), UniProt P00746) (assay: Human Factor D Assay). Settings: Factor D inhibition, assay of Example 10; read-out: IC5 (Stars).
Chain of Human Factor D (P00746 26-253): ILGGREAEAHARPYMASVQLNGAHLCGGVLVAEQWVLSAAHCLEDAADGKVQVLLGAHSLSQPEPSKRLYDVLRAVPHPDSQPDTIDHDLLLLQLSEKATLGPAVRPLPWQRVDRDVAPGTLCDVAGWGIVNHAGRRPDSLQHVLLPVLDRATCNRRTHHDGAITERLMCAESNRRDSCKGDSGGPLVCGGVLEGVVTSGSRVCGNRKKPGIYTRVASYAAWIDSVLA
Format: biochemical
Summary of the method: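 Thioester substrate Z-L-Lys-SBz (100 μM) with Ellman's reagent DTNB (100 μM) reports activity of 80 nM human serum-derived enzyme, kinetically at 405 nm over 30 min. Compound preincubated 5 min, room temperature, pH 7.5 Tris/1 M NaCl; IC50 by nonlinear fit of rates.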
`CC(=O)c1nn(CC(=O)N2[C@H](C(=O)NCCC(=O)O)C[C@@]3(C)C[C@@H]23)c2c(C)cc(-c3cnc(C)nc3)cc12` [Compound 497, 3-((1R,3S,5R)-2-(2-(3-acetyl-7-methyl-5-(2-methylpyrimidin-5-yl)-1H-indazol-1-yl)acetyl)-5-methyl-2-azabicyclo[3.1.0]hexane-3-carboxamido)propanoic acid] was tested, and the IC50 was less than 1000 nM. Work on `CC(=O)c1nn(CC(=O)N2[C@H](C(=O)Nc3nc(Br)ccc3C)C[C@@]3(CN4CCCC4)C[C@@H]23)c2c(C)cc(-c3cnc(C)nc3)cc12` [Compound 296, (1R,3S,5R)-2-(2-(3-acetyl-7-methyl-5-(2-methylpyrimidin-5-yl)-1H-indazol-1-yl)acetyl)-N-(6-bromo-3-methylpyridin-2-yl)-5-(pyrrolidin-1-ylmethyl)-2-azabicyclo[3.1.0]hexane-3-carboxamide] yielded an IC50 of less than 1000 nM. Compound `CC(=O)c1nn(CC(=O)N2[C@H](C(=O)Nc3nc(Br)c(F)cc3C)C[C@@]3(Cc4nnc(C)o4)C[C@@H]23)c2c(C)nc(-c3cnc(C)nc3)cc12` [Compound 485, (1R,3S,5R)-2-(2-(3-acetyl-7-methyl-5-(2-methylpyrimidin-5-yl)-1H-pyrazolo[3,4-c]pyridin-1-yl)acetyl)-N-(6-bromo-5-fluoro-3-methylpyridin-2-yl)-5-((5-methyl-1,3,4-oxadiazol-2-yl)methyl)-2-azabicyclo[3.1.0]hexane-3-carboxamide] has an IC50 of less than 1000 nM. Work on `COCc1cc(Br)nc(NC(=O)[C@@H]2C[C@@]3(C)C[C@H]3N2C(=O)Cn2nc(C(C)=O)c3cc(-c4cnc(C)nc4)ccc32)c1` [Compound 546, (1R,3S,5R)-2-(2-(3-acetyl-5-(2-methylpyrimidin-5-yl)-1H-indazol-1-yl)acetyl)-N-(6-bromo-4-(methoxymethyl)pyridin-2-yl)-5-methyl-2-azabicyclo[3.1.0]hexane-3-carboxamide] yielded an IC50 of less than 1000 nM. With `CCc1cc(Br)nc(NC(=O)[C@@H]2C[C@@]3(C)C[C@H]3N2C(=O)Cn2nc(C(C)=O)c3cc(-c4cnc(C)nc4)ccc32)c1` [Compound 532, (1R,3S,5R)-2-(2-(3-acetyl-5-(2-methylpyrimidin-5-yl)-1H-indazol-1-yl)acetyl)-N-(6-bromo-4-ethylpyridin-2-yl)-5-methyl-2-azabicyclo[3.1.0]hexane-3-carboxamide] the IC50 was less than 1000 nM. Compound `CC(=O)c1nn(CC(=O)N2[C@H](C(=O)Nc3cc(COCc4ccccc4)cc(Br)n3)C[C@@]3(C)C[C@@H]23)c2ccc(-c3cnc(C)nc3)cc12` [Compound 557, (1R,3S,5R)-2-(2-(3-acetyl-5-(2-methylpyrimidin-5-yl)-1H-indazol-1-yl)acetyl)-N-(4-6-bromopyridin-2-yl)-5-methyl-2-azabicyclo[3.1.0]hexane-3-carboxamide] has an IC50 of less than 1000 nM. Compound `CC(=O)c1nn(CC(=O)N2[C@H](C(=O)Nc3cc(CC(C)C)cc(Br)n3)C[C@@]3(C)C[C@@H]23)c2ccc(-c3cnc(C)nc3)cc12` [Compound 542, (1R,3S,5R)-2-(2-(3-acetyl-5-(2-methylpyrimidin-5-yl)-1H-indazol-1-yl)acetyl)-N-(6-bromo-4-isobutylpyridin-2-yl)-5-methyl-2-azabicyclo[3.1.0]hexane-3-carboxamide] has an IC50 of less than 1000 nM.

Same assay, conditions: Table 6; Factor D 80 nM, substrate Z-L-Lys-SBz; read-out: IC50
`CC(=O)c1nn(CC(=O)N2[C@H](C(=O)Nc3nc(Br)ccc3C)C[C@@]3(CNCCF)C[C@@H]23)c2c(C)cc(-c3cnc(C)nc3)cc12` [Compound 113, (1R,3S,5R)-2-(2-(3-Acetyl-7-methyl-5-(2-methylpyrimidin-5-yl)-1H-indazol-1-yl)acetyl)-N-(6-bromo-3-methylpyridin-2-yl)-5-((2-fluoroethylamino)methyl)-2-azabicyclo[3.1.0]hexane-3-carboxamide] showed an IC50 of less than 1000 nM. `C=CCOC[C@@]12C[C@@H](C(=O)Nc3nc(Br)ccc3C=C)N(C(=O)Cn3nc(C(C)=O)c4cc(-c5cnc(C)nc5)ccc43)[C@@H]1C2` [Compound 93, (1R,3S,5S)-2-(2-(3-Acetyl-5-(2-methylpyrimidin-5-yl)-1H-indazol-1-yl)acetyl)-5-((allyloxy)methyl)-N-(6-bromo-3-vinylpyridin-2-yl)-2-azabicyclo[3.1.0]hexane-3-carboxamide] showed an IC50 of less than 1000 nM. Compound `CC(=O)c1nn(CC(=O)N2[C@H]3C[C@@]3(C)C[C@H]2C(=O)Nc2nc(Br)ccc2C)c2c(C(F)(F)F)cc(-c3cnc(C)nc3)cc12` [Compound 77, (1S,3S,5S)-2-(2-(3-acetyl-5-(2-methylpyrimidin-5-yl)-7-(trifluoromethyl)-1H-indazol-1-yl)acetyl)-N-(6-bromo-3-methylpyridin-2-yl)-5-methyl-2-azabicyclo[3.1.0]hexane-3-carboxamide] has an IC50 greater than 10000 nM. `CC(=O)c1nn(CC(=O)N2[C@H](C(=O)Nc3nc(Br)ccc3C)C[C@@]3(CNC(=O)c4ccccc4F)C[C@@H]23)c2c(C)cc(-c3cnc(C)nc3)cc12` [Compound 97, (1R,3S,5R)-2-(2-(3-Acetyl-7-methyl-5-(2-methylpyrimidin-5-yl)-1H-indazol-1-yl)acetyl)-N-(6-bromo-3-methylpyridin-2-yl)-5-((2-fluorobenzamido)methyl)-2-azabicyclo[3.1.0]hexane-3-carboxamide] showed an IC50 of less than 1000 nM. `CC(=O)c1nn(CC(=O)N2[C@H](C(=O)Nc3nc(Br)ccc3C)C[C@@]3(C)C[C@@H]23)c2c(C#N)cc(-c3cnc(C)nc3)cc12` [Compound 124, (1R,3S,5R)-2-(2-(3-Acetyl-7-cyano-5-(2-methylpyrimidin-5-yl)-1H-indazol-1-yl)acetyl)-N-(6-bromo-3-methylpyridin-2-yl)-5-methyl-2-azabicyclo[3.1.0]hexane-3-carboxamide] showed an IC50 of less than 1000 nM. In the case of `CNCC12CC1N(C(=O)Cn1nc(C(C)=O)c3cc(-c4cnc(C)nc4)ccc31)[C@H](C(=O)Nc1nc(Br)ccc1C)C2` (stereo partly drawn) [Compound 42, (3S)-2-(2-(3-acetyl-5-(2-methylpyrimidin-5-yl)-1H-indazol-1-yl)acetyl)-N-(6-bromo-3-methylpyridin-2-yl)-5-((methylamino)methyl)-2-azabicyclo[3.1.0]hexane-3-carboxamide], the IC50 is reported as less than 1000 nM. In the case of `CC(=O)c1nn(CC(=O)N2C[C@H]3C[C@H]3[C@H]2C(=O)Nc2nc(Br)ccc2C)c2ncc(-c3cnc(C)nc3)cc12` [Compound 183, (1R,2S,5S)-3-(2-(3-Acetyl-5-(2-methylpyrimidin-5-yl)-1H-pyrazolo[3,4-b]pyridin-1-yl)acetyl)-N-(6-bromo-3-methylpyridin-2-yl)-3-azabicyclo[3.1.0]hexane-2-carboxamide], the IC50 is reported as less than 1000 nM. In the case of `CC(=O)c1nn(CC(=O)N2[C@H](C(=O)Nc3nc(Br)ccc3C)C[C@@]3(C)C[C@@H]23)c2c(C3CC3)cc(-c3cnc(C)nc3)cc12` [Compound 131, (1R,3S,5R)-2-(2-(3-Acetyl-7-cyclopropyl-5-(2-methylpyrimidin-5-yl)-1H-indazol-1-yl)acetyl)-N-(6-bromo-3-methylpyridin-2-yl)-5-methyl-2-azabicyclo[3.1.0]hexane-3-carboxamide], the IC50 is reported as less than 1000 nM. For `CC(=O)c1nn(CC(=O)N2[C@H](C(=O)Nc3nc(Br)ccc3C)C[C@@]3(C#N)C[C@@H]23)c2c(C)cc(-c3cnc(C)nc3)cc12` [Compound 174, (1R,3S,5S)-2-(2-(3-acetyl-7-methyl-5-(2-methylpyrimidin-5-yl)-1H-indazol-1-yl)acetyl)-N-(6-bromo-3-methylpyridin-2-yl)-5-cyano-2-azabicyclo[3.1.0]hexane-3-carboxamide], the IC50 was greater than 10000 nM. Compound `CNC[C@@]12C[C@@H](C(=O)Nc3nc(Br)ccc3C)N(C(=O)Cn3nc(C(C)=O)c4cc(-c5cnc(C)nc5)cc(C)c43)[C@@H]1C2` [Compound 94, (1R,3S,5R)-2-(2-(3-Acetyl-7-methyl-5-(2-methylpyrimidin-5-yl)-1H-indazol-1-yl)acetyl)-N-(6-bromo-3-methylpyridin-2-yl)-5-((methylamino)methyl)-2-azabicyclo[3.1.0]hexane-3-carboxamide] has an IC50 of less than 1000 nM. For `Cc1ncc(-c2cc(C(N)=O)nn2CC(=O)N2C[C@H](F)C[C@H]2C(=O)Nc2cccc(Br)n2)cn1` [Compound 215, 1-(2-((2S,4R)-2-((6-Bromopyridin-2-yl)carbamoyl)-4-fluoropyrrolidin-1-yl)-2-oxoethyl)-5-(2-methylpyrimidin-5-yl)-1H-pyrazole-3-carboxamide], the IC50 was greater than 10000 nM.

Same assay, conditions: Table 8; Factor D 80 nM, substrate Z-L-Lys-SBz; read-out: IC50
`Cc1ncc(-c2ccc3c(c2)c(C(=O)NCCN)nn3CC(=O)N2[C@H](C(=O)Nc3nc(Br)ccc3C)C[C@@]3(C)C[C@@H]23)cn1` [Compound 489, N-(2-aminoethyl)-1-(2-((1R,3S,5R)-3-((6-bromo-3-methylpyridin-2-yl)carbamoyl)-5-methyl-2-azabicyclo[3.1.0]hexan-2-yl)-2-oxoethyl)-5-(2-methylpyrimidin-5-yl)-1H-indazole-3-carboxamide] was tested, and the IC50 was 1000 to 10000 nM. For `CC(=O)c1nn(CC(=O)N2[C@H](C(=O)NCCCCCc3ccccc3)C[C@@]3(C)C[C@@H]23)c2c(C)cc(-c3cnc(C)nc3)cc12` [Compound 539, (1R,3S,5R)-2-(2-(3-acetyl-7-methyl-5-(2-methylpyrimidin-5-yl)-1H-indazol-1-yl)acetyl)-5-methyl-N-(5-phenylpentyl)-2-azabicyclo[3.1.0]hexane-3-carboxamide], the IC50 was less than 1000 nM. `CC(=O)c1nn(CC(=O)N2[C@H](C(=O)Nc3nc(Br)ccc3C)C[C@@]3(CNC(=O)COCCOCCNC(=O)COCCOCCNC(=O)CC[C@H](NC(=O)CCCCCCCCCCCCCCCCC(=O)O)C(=O)O)C[C@@H]23)c2c(C)cc(-c3cnc(C)nc3)cc12` [Compound 392, (S)-1-((1R,3S,5R)-2-(2-(3-Acetyl-7-methyl-5-(2-methylpyrimidin-5-yl)-1H-indazol-1-yl)acetyl)-3-((6-bromo-3-methylpyridin-2-yl)carbamoyl)-2-azabicyclo[3.1.0]hexan-5-yl)-24-carboxy-3,12,21,26-tetraoxo-5,8,14,17-tetraoxa-2,11,20,25-tetraazatritetracontan-43-oic acid] gave an IC50 of less than 1000 nM.
